Results as given in paper PMC4917279 (Journal of Medicinal Chemistry, 2016).
“Also recorded” adds a separate entry of the source.

Tests used:
AMPK-alpha1 = molecular target: T1, AMPK-alpha1 (Homo sapiens, UniProt Q13131); assay: KINOMEscan; format: binding; details: read-out: %Ctrl @ 1000 nM
T1 construct: purchased DiscoveRx KINOMEscan

ITK = molecular target: T2, ITK (Homo sapiens, UniProt Q08881); assay: KINOMEscan; format: binding; details: read-out: %Ctrl @ 1000 nM
T2 construct: purchased DiscoveRx KINOMEscan

BLK = molecular target: T3, BLK (Homo sapiens, UniProt P51451); assay: KINOMEscan; format: binding; details: read-out: %Ctrl @ 1000 nM
T3 construct: purchased DiscoveRx KINOMEscan

TRKB = molecular target: T4, TRKB (Homo sapiens, UniProt Q16620); assay: KINOMEscan; format: binding; details: read-out: %Ctrl @ 1000 nM
T4 construct: purchased DiscoveRx KINOMEscan

IGF1R = molecular target: T5, IGF1R (Homo sapiens, UniProt P08069); assay: KINOMEscan; format: binding; details: read-out: %Ctrl @ 1000 nM
T5 construct: purchased DiscoveRx KINOMEscan

CSNK2A2 = molecular target: T6, CSNK2A2 (Homo sapiens, UniProt P19784); assay: KINOMEscan; format: binding; details: read-out: %Ctrl @ 1000 nM
T6 construct: purchased DiscoveRx KINOMEscan

DAPK2 = molecular target: T7, DAPK2 (Homo sapiens, UniProt Q9UIK4); assay: KINOMEscan; format: binding; details: read-out: %Ctrl @ 1000 nM
T7 construct: purchased DiscoveRx KINOMEscan
T7 sequence (Q9UIK4 whole entry): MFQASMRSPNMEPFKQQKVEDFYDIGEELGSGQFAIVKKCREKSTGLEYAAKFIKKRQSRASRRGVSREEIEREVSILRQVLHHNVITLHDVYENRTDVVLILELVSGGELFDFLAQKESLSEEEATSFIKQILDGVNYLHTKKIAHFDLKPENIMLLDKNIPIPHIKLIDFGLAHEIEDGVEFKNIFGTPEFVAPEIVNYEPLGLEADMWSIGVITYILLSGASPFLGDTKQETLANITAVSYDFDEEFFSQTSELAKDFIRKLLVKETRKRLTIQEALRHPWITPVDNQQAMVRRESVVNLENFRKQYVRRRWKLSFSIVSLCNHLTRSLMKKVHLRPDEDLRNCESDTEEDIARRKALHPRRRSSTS

[1] = molecular target: T8, JAK1(JH1domain-catalytic) (Homo sapiens, UniProt P23458); assay: KINOMEscan; format: binding; details: read-out: %Ctrl @ 1000 nM
T8 construct: JAK1(JH1domain-catalytic); purchased DiscoveRx KINOMEscan
T8 sequence (P23458 875-1154 limits assumed): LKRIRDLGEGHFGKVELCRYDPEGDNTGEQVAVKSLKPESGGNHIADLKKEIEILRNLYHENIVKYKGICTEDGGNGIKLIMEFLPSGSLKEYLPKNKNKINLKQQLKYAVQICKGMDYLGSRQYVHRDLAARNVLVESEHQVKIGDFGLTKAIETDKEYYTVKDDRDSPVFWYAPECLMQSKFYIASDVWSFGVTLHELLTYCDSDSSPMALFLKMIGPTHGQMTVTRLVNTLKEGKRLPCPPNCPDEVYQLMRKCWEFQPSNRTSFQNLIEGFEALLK

[2] = molecular target: T9, ABL1(F317L)-phosphorylated (Homo sapiens, UniProt P00519, F317L); assay: KINOMEscan; format: binding; details: read-out: %Ctrl @ 1000 nM
T9 construct: purchased DiscoveRx (KINOMEscan service)

MYO3B = molecular target: T10, MYO3B (Homo sapiens, UniProt Q8WXR4); assay: KINOMEscan; format: binding; details: read-out: %Ctrl @ 1000 nM
T10 construct: purchased DiscoveRx KINOMEscan

ZAK = molecular target: T11, ZAK (Homo sapiens, UniProt Q9NYL2); assay: KINOMEscan; format: binding; details: read-out: %Ctrl @ 1000 nM
T11 construct: purchased DiscoveRx
T11 sequence (Q9NYL2 whole entry): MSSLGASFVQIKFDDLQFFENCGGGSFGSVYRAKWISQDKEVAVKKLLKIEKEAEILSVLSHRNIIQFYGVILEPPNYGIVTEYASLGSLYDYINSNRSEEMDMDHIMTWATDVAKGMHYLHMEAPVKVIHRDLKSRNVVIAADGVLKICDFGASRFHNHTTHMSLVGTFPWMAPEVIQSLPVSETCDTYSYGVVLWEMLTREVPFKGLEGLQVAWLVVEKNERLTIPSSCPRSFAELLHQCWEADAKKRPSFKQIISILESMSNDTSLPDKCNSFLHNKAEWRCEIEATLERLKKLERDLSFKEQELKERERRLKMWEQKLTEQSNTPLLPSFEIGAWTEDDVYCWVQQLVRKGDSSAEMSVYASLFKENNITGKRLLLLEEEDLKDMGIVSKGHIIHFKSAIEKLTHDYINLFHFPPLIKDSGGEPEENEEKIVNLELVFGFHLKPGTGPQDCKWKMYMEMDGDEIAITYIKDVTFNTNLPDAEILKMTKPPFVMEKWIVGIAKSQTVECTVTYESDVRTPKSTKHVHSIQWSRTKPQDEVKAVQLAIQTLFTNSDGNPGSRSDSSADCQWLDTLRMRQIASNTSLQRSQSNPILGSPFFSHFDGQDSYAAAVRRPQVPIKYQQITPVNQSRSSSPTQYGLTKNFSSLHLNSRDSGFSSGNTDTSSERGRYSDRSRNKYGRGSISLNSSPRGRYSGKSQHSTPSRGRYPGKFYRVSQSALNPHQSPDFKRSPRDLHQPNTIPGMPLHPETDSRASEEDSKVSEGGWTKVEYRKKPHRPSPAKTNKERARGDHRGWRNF

[3] = molecular target: T12, ABL1(Y253F)-phosphorylated (Homo sapiens, UniProt P00519, Y253F); assay: KINOMEscan; format: binding; details: read-out: %Ctrl @ 1000 nM
T12 construct: purchased DiscoveRx

MAPKAPK5 = molecular target: T13, MAPKAPK5 (Homo sapiens, UniProt Q8IW41); assay: KINOMEscan; format: binding; details: read-out: %Ctrl @ 1000 nM
T13 construct: purchased DiscoveRx KINOMEscan

ARK5 = molecular target: T14, ARK5 (Homo sapiens, UniProt O60285); assay: KINOMEscan; format: binding; details: read-out: %Ctrl @ 1000 nM
T14 construct: purchased DiscoveRx KINOMEscan

SMYD2 [4] = molecular target: T15, SMYD2 (Homo sapiens, UniProt Q9NRG4); assay: Mechanism-of-inhibition studies (SPA, Cheng-Prusoff); format: biochemical; parameters: The SMYD2 full-length enzyme with an N-terminal 6xHis tag was expressed in Escherichia coli; made in house; host or cells: Escherichia coli
T15 sequence (Q9NRG4 whole entry): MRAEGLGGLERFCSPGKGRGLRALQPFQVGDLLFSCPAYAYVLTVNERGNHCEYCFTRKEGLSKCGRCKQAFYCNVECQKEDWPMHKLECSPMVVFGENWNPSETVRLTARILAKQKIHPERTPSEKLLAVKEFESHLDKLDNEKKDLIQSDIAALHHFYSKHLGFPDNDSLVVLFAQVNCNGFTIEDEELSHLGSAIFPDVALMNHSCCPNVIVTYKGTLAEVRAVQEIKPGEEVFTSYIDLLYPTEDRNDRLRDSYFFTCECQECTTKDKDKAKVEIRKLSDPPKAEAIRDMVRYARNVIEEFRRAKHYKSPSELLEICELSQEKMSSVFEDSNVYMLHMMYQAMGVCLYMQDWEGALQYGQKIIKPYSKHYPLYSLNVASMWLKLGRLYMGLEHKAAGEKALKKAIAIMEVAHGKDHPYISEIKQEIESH

CDK4-cyclinD1 = molecular target: T16, CDK4-cyclinD1 (Homo sapiens, UniProt P11802); assay: KINOMEscan; format: binding; details: read-out: %Ctrl @ 1000 nM
T16 construct: purchased DiscoveRx KINOMEscan

LIMK2 = molecular target: T17, LIMK2 (Homo sapiens, UniProt P53671); assay: KINOMEscan; format: binding; details: read-out: %Ctrl @ 1000 nM
T17 construct: purchased DiscoveRx KINOMEscan

[5] = molecular target: T18, TYK2(JH2domain-pseudokinase) (Homo sapiens, UniProt P29597); assay: KINOMEscan; format: binding; details: read-out: %Ctrl @ 1000 nM
T18 construct: TYK2(JH2domain-pseudokinase); purchased DiscoveRx KINOMEscan

KIT(L576P) = molecular target: T19, KIT(L576P) (Homo sapiens, UniProt P10721, L576P); assay: KINOMEscan; format: binding; details: read-out: %Ctrl @ 1000 nM
T19 construct: purchased DiscoveRx KINOMEscan

SMYD2 [6] = molecular target: T15, SMYD2; assay: Ex vivo methylation detection by dot blot (AHNAK) in SMYD2-overexpressing KYSE-150 xenografts; parameters: expressed in transfected cells; species or system mouse; details: 3 days
DCAMKL3 = molecular target: T20, DCAMKL3 (Homo sapiens, UniProt Q9C098); assay: KINOMEscan; format: binding; details: read-out: %Ctrl @ 1000 nM
T20 construct: purchased DiscoveRx KINOMEscan
T20 sequence (Q9C098 whole entry): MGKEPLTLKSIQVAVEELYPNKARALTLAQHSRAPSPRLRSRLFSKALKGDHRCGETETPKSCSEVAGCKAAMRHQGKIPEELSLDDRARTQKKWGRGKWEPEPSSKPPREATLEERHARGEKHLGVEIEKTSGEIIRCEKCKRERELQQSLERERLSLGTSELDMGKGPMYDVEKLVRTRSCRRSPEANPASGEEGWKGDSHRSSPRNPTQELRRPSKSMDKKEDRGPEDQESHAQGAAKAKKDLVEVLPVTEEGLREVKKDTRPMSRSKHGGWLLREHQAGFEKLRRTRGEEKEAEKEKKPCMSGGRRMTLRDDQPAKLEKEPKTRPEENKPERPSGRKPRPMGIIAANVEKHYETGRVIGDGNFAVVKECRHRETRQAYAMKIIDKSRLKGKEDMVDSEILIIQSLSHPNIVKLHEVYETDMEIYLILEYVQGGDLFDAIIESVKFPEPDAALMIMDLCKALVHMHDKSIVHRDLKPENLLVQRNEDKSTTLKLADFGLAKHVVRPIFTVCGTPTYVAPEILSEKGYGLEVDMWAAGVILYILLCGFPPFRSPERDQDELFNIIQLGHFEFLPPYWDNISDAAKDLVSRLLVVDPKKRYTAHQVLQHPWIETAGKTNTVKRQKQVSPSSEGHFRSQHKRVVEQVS

DAPK3 = molecular target: T21, DAPK3 (Homo sapiens, UniProt O43293); assay: KINOMEscan; format: binding; details: read-out: %Ctrl @ 1000 nM
T21 construct: purchased DiscoveRx KINOMEscan
T21 sequence (O43293 whole entry): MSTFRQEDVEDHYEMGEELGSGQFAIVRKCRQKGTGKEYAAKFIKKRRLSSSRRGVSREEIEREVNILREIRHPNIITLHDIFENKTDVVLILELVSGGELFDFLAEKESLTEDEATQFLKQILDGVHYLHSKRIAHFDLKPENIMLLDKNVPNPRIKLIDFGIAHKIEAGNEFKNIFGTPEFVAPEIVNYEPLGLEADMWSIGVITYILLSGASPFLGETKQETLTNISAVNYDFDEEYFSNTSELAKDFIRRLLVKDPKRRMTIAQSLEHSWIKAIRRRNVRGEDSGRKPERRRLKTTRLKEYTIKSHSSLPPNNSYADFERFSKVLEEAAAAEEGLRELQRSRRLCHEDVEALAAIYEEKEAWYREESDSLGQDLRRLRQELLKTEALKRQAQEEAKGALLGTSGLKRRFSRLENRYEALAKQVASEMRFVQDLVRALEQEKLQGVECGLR

IRAK1 = molecular target: T22, IRAK1 (Homo sapiens, UniProt P51617); assay: KINOMEscan; format: binding; details: read-out: %Ctrl @ 1000 nM
T22 construct: purchased DiscoveRx KINOMEscan

PIK3CA(E542K) = molecular target: T23, PIK3CA(E542K) (Homo sapiens, UniProt P42336, E542K); assay: KINOMEscan; format: binding; details: read-out: %Ctrl @ 1000 nM
T23 construct: purchased DiscoveRx KINOMEscan

NDR2 = molecular target: T24, NDR2 (Homo sapiens, UniProt Q9Y2H1); assay: KINOMEscan; format: binding; details: read-out: %Ctrl @ 1000 nM
T24 construct: purchased DiscoveRx KINOMEscan
T24 sequence (Q9Y2H1 whole entry): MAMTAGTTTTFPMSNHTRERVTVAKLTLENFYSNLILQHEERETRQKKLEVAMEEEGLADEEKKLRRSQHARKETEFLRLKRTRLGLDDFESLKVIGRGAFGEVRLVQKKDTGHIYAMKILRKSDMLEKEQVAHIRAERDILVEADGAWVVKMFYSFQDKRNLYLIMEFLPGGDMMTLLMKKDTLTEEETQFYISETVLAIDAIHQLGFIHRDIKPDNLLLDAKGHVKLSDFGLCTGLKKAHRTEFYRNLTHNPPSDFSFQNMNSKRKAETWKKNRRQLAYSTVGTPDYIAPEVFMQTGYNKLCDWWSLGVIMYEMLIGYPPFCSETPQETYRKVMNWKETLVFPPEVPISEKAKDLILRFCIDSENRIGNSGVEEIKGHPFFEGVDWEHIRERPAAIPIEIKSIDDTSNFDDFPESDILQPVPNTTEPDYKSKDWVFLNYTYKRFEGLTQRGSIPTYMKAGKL

GSK3B = molecular target: T25, GSK3B (Homo sapiens, UniProt P49841); assay: KINOMEscan; format: binding; details: read-out: %Ctrl @ 1000 nM
T25 construct: purchased DiscoveRx KINOMEscan

FER = molecular target: T26, FER (Homo sapiens, UniProt P16591); assay: KINOMEscan; format: binding; details: read-out: %Ctrl @ 1000 nM
T26 construct: purchased DiscoveRx KINOMEscan

GRK7 = molecular target: T27, GRK7 (Homo sapiens, UniProt Q8WTQ7); assay: KINOMEscan; format: binding; details: read-out: %Ctrl @ 1000 nM
T27 construct: purchased DiscoveRx KINOMEscan

FYN = molecular target: T28, FYN (Homo sapiens, UniProt P06241); assay: KINOMEscan; format: binding; details: read-out: %Ctrl @ 1000 nM
T28 construct: purchased DiscoveRx KINOMEscan
T28 sequence (P06241 whole entry): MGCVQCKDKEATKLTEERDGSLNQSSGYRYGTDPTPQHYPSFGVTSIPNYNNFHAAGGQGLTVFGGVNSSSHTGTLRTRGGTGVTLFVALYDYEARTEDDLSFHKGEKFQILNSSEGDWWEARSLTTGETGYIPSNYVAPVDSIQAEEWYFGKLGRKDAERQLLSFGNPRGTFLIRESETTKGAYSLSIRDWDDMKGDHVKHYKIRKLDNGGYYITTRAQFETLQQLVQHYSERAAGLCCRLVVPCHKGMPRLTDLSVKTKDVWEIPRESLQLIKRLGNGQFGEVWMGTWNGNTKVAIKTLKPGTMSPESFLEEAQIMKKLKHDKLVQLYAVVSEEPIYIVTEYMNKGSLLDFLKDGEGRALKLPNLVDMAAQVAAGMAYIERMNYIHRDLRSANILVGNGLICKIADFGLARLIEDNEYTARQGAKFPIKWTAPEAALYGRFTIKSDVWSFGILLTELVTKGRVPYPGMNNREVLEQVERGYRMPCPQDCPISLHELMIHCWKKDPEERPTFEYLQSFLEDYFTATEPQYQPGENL

MAP3K2 = molecular target: T29, MAP3K2 (Homo sapiens, UniProt Q9Y2U5); assay: KINOMEscan; format: binding; details: read-out: %Ctrl @ 1000 nM
T29 construct: purchased DiscoveRx KINOMEscan

CAMK1 = molecular target: T30, CAMK1 (Homo sapiens, UniProt Q14012); assay: KINOMEscan; format: binding; details: read-out: %Ctrl @ 1000 nM
T30 construct: purchased DiscoveRx KINOMEscan

BRK = molecular target: T31, BRK (Homo sapiens, UniProt Q13882); assay: KINOMEscan; format: binding; details: read-out: %Ctrl @ 1000 nM
T31 construct: purchased DiscoveRx KINOMEscan

PCTK1 = molecular target: T32, PCTK1 (Homo sapiens, UniProt Q00536); assay: KINOMEscan; format: binding; details: read-out: %Ctrl @ 1000 nM
T32 construct: purchased DiscoveRx KINOMEscan

NEK9 = molecular target: T33, NEK9 (Homo sapiens, UniProt Q8TD19); assay: KINOMEscan; format: binding; details: read-out: %Ctrl @ 1000 nM
T33 construct: purchased DiscoveRx KINOMEscan

MAST1 = molecular target: T34, MAST1 (Homo sapiens, UniProt Q9Y2H9); assay: KINOMEscan; format: binding; details: read-out: %Ctrl @ 1000 nM
T34 construct: purchased DiscoveRx KINOMEscan

LIMK1 = molecular target: T35, LIMK1 (Homo sapiens, UniProt P53667); assay: KINOMEscan; format: binding; details: read-out: %Ctrl @ 1000 nM
T35 construct: purchased DiscoveRx KINOMEscan

FGFR2 = molecular target: T36, FGFR2 (Homo sapiens, UniProt P21802); assay: KINOMEscan; format: binding; details: read-out: %Ctrl @ 1000 nM
T36 construct: purchased DiscoveRx KINOMEscan
T36 sequence (P21802 22-821): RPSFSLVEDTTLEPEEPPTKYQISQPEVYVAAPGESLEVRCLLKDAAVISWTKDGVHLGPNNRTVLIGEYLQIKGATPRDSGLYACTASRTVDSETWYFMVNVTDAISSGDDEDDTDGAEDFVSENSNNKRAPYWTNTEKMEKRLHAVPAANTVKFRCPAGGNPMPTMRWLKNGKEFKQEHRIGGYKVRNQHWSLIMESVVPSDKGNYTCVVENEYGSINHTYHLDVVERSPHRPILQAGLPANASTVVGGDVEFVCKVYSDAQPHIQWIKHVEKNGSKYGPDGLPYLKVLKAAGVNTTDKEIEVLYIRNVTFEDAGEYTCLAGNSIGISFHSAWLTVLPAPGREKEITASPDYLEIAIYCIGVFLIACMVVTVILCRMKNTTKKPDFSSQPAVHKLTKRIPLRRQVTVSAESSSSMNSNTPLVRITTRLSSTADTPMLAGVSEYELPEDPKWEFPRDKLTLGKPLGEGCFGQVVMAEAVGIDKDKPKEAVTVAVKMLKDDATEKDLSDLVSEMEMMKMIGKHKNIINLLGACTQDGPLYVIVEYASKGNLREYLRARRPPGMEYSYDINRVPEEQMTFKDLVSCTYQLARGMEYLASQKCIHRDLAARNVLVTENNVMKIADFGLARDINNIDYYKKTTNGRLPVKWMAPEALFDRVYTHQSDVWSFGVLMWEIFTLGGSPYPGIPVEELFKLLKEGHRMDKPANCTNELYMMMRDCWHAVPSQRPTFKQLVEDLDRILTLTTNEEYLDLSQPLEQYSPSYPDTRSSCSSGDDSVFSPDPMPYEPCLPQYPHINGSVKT

MRCKA = molecular target: T37, MRCKA (Homo sapiens, UniProt Q5VT25); assay: KINOMEscan; format: binding; details: read-out: %Ctrl @ 1000 nM
T37 construct: purchased DiscoveRx KINOMEscan

ADCK3 = molecular target: T38, ADCK3 (Homo sapiens, UniProt Q8NI60); assay: KINOMEscan; format: binding; details: read-out: %Ctrl @ 1000 nM
T38 construct: purchased DiscoveRx KINOMEscan

PAK7 = molecular target: T39, PAK7 (Homo sapiens, UniProt Q9P286); assay: KINOMEscan; format: binding; details: read-out: %Ctrl @ 1000 nM
T39 construct: purchased DiscoveRx KINOMEscan

Question: How did the remaining binding at 1 µM (AMPK-alpha1) turn out when `CCN(C(=O)CO)[C@H]1CN(/C(=N\C#N)Nc2cccc(OC(F)F)c2)N=C1c1ccc(Cl)c(Cl)c1` [(S)-4] was run?
Answer: 68%

Question: And the remaining binding at 1 µM (ITK)?
Answer: 94%

Question: What about the remaining binding at 1 µM (BLK) of the same compound?
Answer: 88%

Question: And the remaining binding at 1 µM (TRKB)?
Answer: 100%

Question: And the remaining binding at 1 µM (IGF1R)?
Answer: 97%

Question: What about the remaining binding at 1 µM (CSNK2A2) of the same compound?
Answer: 56%

Question: And the remaining binding at 1 µM (DAPK2)?
Answer: 100%

Question: And the remaining binding at 1 µM [1]?
Answer: 85%

Question: And the remaining binding at 1 µM [2]?
Answer: 93%

Question: And the remaining binding at 1 µM (MYO3B)?
Answer: 96%

Question: And the remaining binding at 1 µM (ZAK)?
Answer: 95%

Question: What about the remaining binding at 1 µM [3] of the same compound?
Answer: 100%

Question: And the remaining binding at 1 µM (MAPKAPK5)?
Answer: 100%

Question: And the remaining binding at 1 µM (ARK5)?
Answer: 100%

Question: What about the “Mode of inhibition / mode of action” value (SMYD2 [4]) of the same compound?
Answer: peptide-competitive, SAM-uncompetitive inhibitor; also recorded: substrate competitive

Question: And the remaining binding at 1 µM (CDK4-cyclinD1)?
Answer: 93%

Question: What about the remaining binding at 1 µM (LIMK2) of the same compound?
Answer: 62%

Question: And the remaining binding at 1 µM [5]?
Answer: 95%

Question: What about the remaining binding at 1 µM (KIT(L576P)) of the same compound?
Answer: 85%

Question: And the “Ex vivo AHNAK methylation in tumors” value (SMYD2 [6]; 10 mg/kg po qd)?
Answer: no significant effect

Question: What about the “Ex vivo AHNAK methylation in tumors” value (SMYD2 [6]; 100 mg/kg po qd) of the same compound?
Answer: most significant effects

Question: What about the “Ex vivo AHNAK methylation in tumors” value (SMYD2 [6]; doses starting from 30 mg/kg po qd) of the same compound?
Answer: significantly reduced

Question: And the remaining binding at 1 µM (DCAMKL3)?
Answer: 75%

Question: And the remaining binding at 1 µM (DAPK3)?
Answer: 94%

Question: And the remaining binding at 1 µM (IRAK1)?
Answer: 92%

Question: What about the remaining binding at 1 µM (PIK3CA(E542K)) of the same compound?
Answer: 92%

Question: What about the remaining binding at 1 µM (NDR2) of the same compound?
Answer: 76%

Question: And the remaining binding at 1 µM (GSK3B)?
Answer: 88%

Question: What about the remaining binding at 1 µM (FER) of the same compound?
Answer: 68%

Question: What about the remaining binding at 1 µM (GRK7) of the same compound?
Answer: 100%

Question: What about the remaining binding at 1 µM (FYN) of the same compound?
Answer: 71%

Question: And the remaining binding at 1 µM (MAP3K2)?
Answer: 100%

Question: And the remaining binding at 1 µM (CAMK1)?
Answer: 85%

Question: What about the remaining binding at 1 µM (BRK) of the same compound?
Answer: 73%

Question: And the remaining binding at 1 µM (PCTK1)?
Answer: 98%

Question: And the remaining binding at 1 µM (NEK9)?
Answer: 100%

Question: And the remaining binding at 1 µM (MAST1)?
Answer: 83%

Question: What about the remaining binding at 1 µM (LIMK1) of the same compound?
Answer: 100%

Question: What about the remaining binding at 1 µM (FGFR2) of the same compound?
Answer: 86%

Question: And the remaining binding at 1 µM (MRCKA)?
Answer: 93%

Question: What about the remaining binding at 1 µM (ADCK3) of the same compound?
Answer: 98%

Question: What about the remaining binding at 1 µM (PAK7) of the same compound?
Answer: 100%
